# Patent publication US7226754B2, “Kinase Wee1 fusion protein compositions, nucleotide sequences, expression systems, and methods of use” (The Scripps Research Institute, priority 1998, dated 2007)
# How the values were obtained:
# [1] = system: Mik1; experiment: Mik1HAHIS abundance in HU-treated cells (immunoblot); format: cell-based, Schizosaccharomyces pombe; conditions: cells treated 4 hrs with 12 mM HU vs mock-treated
# Description: FIG. 3C is a photograph of an analysis of proteins which illustrates that Cds1 and Rad3-dependent increase in Mik1 abundance in HU-treated cells. Wild-type, Cds1 and rad3 cells in which genomic mik1 encoded Mik1^HAHIS protein were incubated for 4 hrs in YES at 25° C. with 12 mM HU or mock-treated. Mik1HARIS protein was purified by Ni^2+-NTA purification in denaturing conditions and detected by immunoblotting with antibodies to HA.
# Phosphorylation of Wee1 by Cds1 may play a role in the DNA replication checkpoint. However, wee1 mutants arrest division in response to HU (Enoch et al, Cell, 60:665, 1990), thus another protein that controls Cdc2 Tyr^15 phosphorylation must also be regulated by the replication checkpoint. The kinase Mik1 phosphorylates Cdc2 on Tyr^15 (Lundgren et al, Cell, 64:1111, 1991), therefore the abundance of Mik1 was monitored in HU-treated cells using a strain expressing Mik1^HAHIS from the genomic locus. […] The abundance of mik1 mRNA was unchanged in HU-treated cells, thus HU must influence Mik1 synthesis or turnover. […] Mik1 is a dose-dependent inhibitor of mitosis (Lundgren et al, Cell, 64:1111, 1991), thus the increase of Mik1 abundance in HU-treated cells should help to enforce the checkpoint.
# [2] = system: Cds1; experiment: Cds1HAHIS autophosphorylation assay after HU treatment of cells; format: cell-based, Schizosaccharomyces pombe; conditions: Cds1HAHIS purified from HU or mock-treated cells
# Source text: FIG. 3B is a photograph of an analysis of proteins which illustrates that HU activates Cds1 kinase activity. In a separate experiment Cds1^HAHIS was purified in native conditions and assayed for autophosphorylation activity (upper panel). Immunoblot analysis confirmed that similar amounts of Cds1HAHIS were recovered in the HU and mock-treated samples (lower panel).
# Cds1^HAHIS was also purified from HU or mock-treated cells and assayed in an autophosphorylation assay. Phosphorylation of Cds1 was increased in samples from cells treated HU (FIG. 3B). Similar results were obtained using GST:Wee1^70 as a substrate. Thus HU apparently both activates Cds1 as a kinase and stimulates binding to Wee1.
# [3] = system: GST:Wee1; experiment: GST:Wee1 phosphorylation by associated kinase from lysates of HU-treated cells; format: cell-based, Schizosaccharomyces pombe; conditions: lysates of cells treated with 12 mM HU, 1 hr time course at 30° C.
# Description: FIG. 1B is a photograph of an analysis of proteins from cells that were treated with 12 mM HU for a 1 hr time course at 30° C. Cell lysates were incubated with GST:Wee1 proteins bound to GSH-Sepharose. The GSH-Sepharose was washed and assayed for associated kinase activity. The positions of GST:Wee1^152 and GST:Wee1^70 following 12% SDS-polyacrylamide gel electrophoresis are shown.
# The GST:Wee1^152 and GST:Wee1^70 proteins prepared in Example 1 were used to study yeast cellular functions. To that end, the isolated proteins were bound to glutathione (GSH)-Sepharose and mixed with cell lysates from the fission yeast Schizosaccharomyces pombe (S. pombe) harvested at intervals during incubation with hydroxyurea (HU).
# (§1) The cell lysates were obtained from a variety of strains of S. pombe cells having the following genotypes: PR109, wild-type; NB2117, cds1::ura4+; NB2118, cds1:2HA6His:ura4+; NR1826, rad3::ura4+; OM591, cdc22-M45; NR1593, rad1::ura4+; NR1592,chk1::ura4+; BF1758, nmt1:GST:chk1:leu1+; BF1916, nmt1:GST:cds1:leu1+; OM2173, mik1:2HA6His:ura4+; OM2183, mik1:2HA6His:ura4+cds1::ura4+; PR712, mik1::ura4+; and BF2115, cds1::ura4+chk1::ura4+. All strains were leu1-32 ura4-D18. All nmt1 promoter constructs were integrated at the leu1-32 locus. […]
# The proteins bound to GSH-Sepharose were washed, incubated with [gamma-^32P]ATP and analyzed by SDS-polyacrylamide gel electrophoresis (FIG. 1B). […]
# [4] = system: Schizosaccharomyces pombe; experiment: Replication checkpoint: progression through mitosis of synchronous cultures in the presence of HU; format: cell-based; conditions: 12 mM HU
# Description: FIGS. 5A–5B are graphs which illustrate that replication checkpoint is abolished in Cds1 chk1 cells as described in Example 2. […] Progression through mitosis in the presence of 12 mM HU was monitored by scoring binucleate or septated cells. The cds1 chk1 double mutant and rad3 cells underwent mitosis in the presence of HU, whereas division was arrested in control strains (wild-type, Cds1 and chk1 single mutants).
# as §1, with “locus. Growth media and general methods for S. pombe have been described [Moreno et al, Meth. Enzymol., 194:795 (1991)]. Unless otherwise indicated, yeast cultures were grown in YES medium at 30 C.” for “locus.”
# Cells were first grown in YES (yeast extract and glucose) medium to an OD600 of 1.0 and then treated with HU (12 mM) for 90 min at 30 C. […] Cells were scored for progression through mitosis by microscopic observation. […]
# [5] = system: Schizosaccharomyces pombe; experiment: HU sensitivity (survival) of S. pombe strains; format: cell-based; conditions: for sensitivity to killing by HU: 12 mM HU
# Description: FIG. 3D is a photograph of cell cultures which illustrates that Mikl is important for survival of HU treatment. Serial dilutions or wild-type and mik1 cells were plated in YES medium supplemented with 0 or 6 mM HU and incubated for 2 days at 30° C.
# Cells were first grown in YES (yeast extract and glucose) medium to an OD600 of 1.0 and then treated with HU (12 mM) for 90 min at 30 C. Synchronous cells were then obtained by centrifugal elutriation with a Beckman JE-5.0 elutriation rotor. These cells were diluted to an OD600 of 0.3 in YES containing 12 mM HU and grown at 30 C. for a further 4 hr. Cells were scored for progression through mitosis by microscopic observation. HU sensitivity studies were carried out with cells grown to an OD600 of 0.3 in YES medium and then diluted to 13,000 cells/ml in YES media containing HU (12 mM), followed by growth at 30 C. for a further 8 hr. Samples (75 μl) were taken at regular intervals, plated onto YES plates and grown for 4 days at 30 C. to determine survival.
# [6] = system: Cds1; experiment: Binding of Cds1HAHIS from cell lysates to GST:Wee1 (immunoblot); format: cell-based, Schizosaccharomyces pombe; conditions: lysates of Cds1HAHIS cells treated 3.5 hr with HU vs mock-treated
# Source text: FIGS. 3A–3D illustrate that HU stimulates Cds1 kinase activity, binding of Cds1 to GST:Wee1^70 in lysates and accumulation of Mik1 as described in Example 2. FIG. 3A is a photograph of an analysis of proteins which illustrates that HU stimulates Cds1 binding to GST:Wee1^70. A culture of cells expressing Cds1^HAHIS from the cds1 genomic locus was split and treated for 3.5 hr with HU or mock-treated. The cultures were split again and samples processed for Ni^2+-NTA purification of Cds1^HAHIS in denaturing conditions or purification of proteins that bind GST:Wee1 proteins in nondenaturing conditions. After extensive washing, samples were resolved by 10% SDS-polyacrylamide gel electrophoresis and subjected to immunoblot analysis.
# HU may increase the abundance of Cds1, or it may make Cds1 competent to associate with Wee1, or perhaps the replication checkpoint enhances the kinase activity of Cds1. Cells expressing Cds1^HAHIS were treated with HU or mock-treated; lysates were made and precipitated with GST:Wee1 proteins. Association of Cds1^HAHIS with GST:Wee1 was detected in lysates from cells treated with HU, whereas no Cds1^HAHIS associated with GST:Wee1 in mock-treated samples (FIG. 3A).
smiles,measurement,setting,value
"NC(=O)NO [HU, hydroxyurea]",amount of Mik1HAHIS,[1],increased
same,phosphorylation of Cds1 (autophosphorylation),[2],increased
same,phosphorylation of GST:Wee1^152 and GST:Wee1^70,[3],increased
same,cell division in the presence of HU,[4]; Cds1 chk1 double mutant cells,underwent division
same,cell division in the presence of HU,"[4]; wild-type cells, Cds1 and chk1 single mutants",arrested division
same,sensitivity to killing by HU,[5]; Cds1 cells,moderately sensitive
same,sensitivity to killing by HU,[5]; Cds1 chk1 double mutant cells,acutely sensitive to killing
same,sensitivity to HU,"[5]; mik1 mutants, YES medium with 0 or 6 mM HU, 2 days at 30° C.",enhanced sensitivity
same,sensitivity to killing by HU,[5]; wild-type and chk1 cells,not sensitive
same,association of Cds1 with GST:Wee1,[6],enhanced association
